The source of these data is patent publication US20070135490A1, “Phenetanolamine derivatives” (priority 2003, published 2007).

The experiment addresses T1, human beta-2 receptor (Homo sapiens, UniProt P07550).
T1 construct: expressed in transfected cells; host or cells: Chinese hamster ovary cells (whole cells or membranes derived from them)
The experiment can be described thus: Chinese hamster ovary cells co-expressing the human receptor with a reporter gene, cAMP measurement in whole cells or membranes (Method 2). Format: cell-based. The note with it: CHO cells or membranes. As for the experimental part: Potency of compounds of the invention at the human beta 2, 1 and 3 receptors was also determined using Chinese hamster ovary cells co-expressing the human receptor with a reporter gene. Studies were performed using either whole cells or membranes derived from those cells.
The three beta-receptors are coupled via the Gs G-protein to cause a simulation of adenylate cyclase resulting in increased levels of cAMP in the cell. For direct cAMP measurements either membranes or cells have been used with either the HitHunter enzyme fragment complementation kit (DiscoveRx) or the FP^2 fluorescence polarisation kit (Perkin Elmer) to quantify the levels of cAMP present. These assays provide a measure of agonist potency and intrinsic activity of the compounds at the various receptors. […]
In this assay the potency of compounds at the human beta-2 receptor is expressed as a pEC50 value. Compounds of examples 12-26, 28-50 and 52-64 had pEC50 values greather than 6. […] No result is available for the compound of example 51.
(In general: A reporter such as luciferase makes a cellular process visible.)

As to “Formic acid compound with 4-((1R)-1-hydroxy-2-{[2-(3-{[3-(2-hydroxyphenyl)propoxy]methyl}phenyl)ethyl]amino}ethyl)-2-(hydroxymethyl)phenol (1:1) [Example 27]”, the “pEC50 at the human beta-2 receptor” value is recorded as “less than 6”.
